The structures appear in SMILES notation.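 How tested: cells in 96-well plates exposed to compound for 48 hours at five concentrations. GI50 is the concentration that inhibits growth by half.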 Active and inactive are the calls of the source. No stated cut-off is given here; in the data, active = GI50 up to about 1.1 µM and inactive = higher.

These results are taken from ChEMBL document CHEMBL1201862, “PubChem BioAssay data set” (2004).

Experiment in all cases: growth of human tumour cells (NCI), 48 h
Experiment [1] deals with 786-0.
In experiment [2] the test system is ACHN.
The test system of experiment [3] is CAKI-1.
The test system of experiment [4] is COLO 205.
For experiment [5], the system named is DU-145.
The test system of experiment [6] is EKVX.
The test system of experiment [7] is HCT-15.
The test system of experiment [8] is HOP-62.
The test system of experiment [9] is KM12.
Experiment [10] concerns NCI-H23.
In experiment [11] the test system is OVCAR-3.
Experiment [12] relates to OVCAR-4.
Experiment [13] relates to OVCAR-8.
For experiment [14], the system named is RPMI-8226.
In experiment [15] the test system is RXF 393.
For experiment [16], the system named is SF-295.
For experiment [17], the system named is SF-539.
In experiment [18] the test system is SNB-75.
Experiment [19] deals with U-251.
Experiment [20] has as its system UACC-62.

In the case of `O=S(=O)(OI(O)CC(F)(F)F)C(F)(F)F`, the GI50 in [1], in experiment [2], in [3], in experiment [4], in experiment [5] and in experiment [6] was > 100 µM (inactive) throughout. The GI50 is over 100 µM in experiment [7]; > 100 µM (inactive) in experiment [8]; > 100 µM (inactive) in [9]; > 100 µM (inactive) in [10]; > 100 µM (inactive) in experiment [11]; > 100 µM (inactive) in experiment [12]. The GI50 in experiment [13], in experiment [14], in experiment [15], in [16], in [17] and in experiment [18] was > 100 µM (inactive) throughout. The GI50 in experiment [19] and in experiment [20] was > 100 µM (inactive) each time.

`O=C(Cn1cc(Br)c(=O)[nH]c1=O)c1ccc(-c2ccccc2)cc1`: the GI50 was 10.5 µM (inactive) in [1]; 18.6 µM (inactive) in experiment [2]; 6 µM (inactive) in experiment [3]; > 16.4 µM (inactive) in experiment [4]; > 16.1 µM (inactive) in experiment [5]; 60 µM (inactive) in experiment [6]. Moreover, the GI50 in experiment [7] is 7.67 µM; in experiment [8], 5.12 µM (inactive); in experiment [9], > 14.6 µM (inactive); in experiment [10], 16.4 µM (inactive); in experiment [11] it was > 100 µM (inactive); in [12] it was > 15.8 µM (inactive). For the same compound, the GI50 in experiment [13] is 6.76 µM (inactive); in experiment [14], 15.3 µM (inactive); in experiment [15] it was 63 µM (inactive); in [16] it was 10.9 µM (inactive); in experiment [17], 8.41 µM (inactive); in experiment [18], 1.85 µM (inactive). Moreover, the GI50 in experiment [19] was 5.31 µM (inactive); in experiment [20] it was > 100 µM (inactive).

As to `CN(C)CCCCN1c2ccccc2Sc2ccc(N=[N+]=[N-])cc21`, the GI50 in experiment [1] was 8.69 µM (inactive); in experiment [2] it was 3.2 µM (inactive); in [3] it was 5.62 µM (inactive); in [4] it was 1.72 µM (inactive); in experiment [5], 5.7 µM (inactive); in experiment [6] it was 13.2 µM (inactive). Further, the GI50 in [7] was 3.72 µM; in experiment [8] it was 11.5 µM (inactive); in experiment [9], 3.15 µM (inactive); in experiment [10], 13.3 µM (inactive); in experiment [11], 6.05 µM (inactive); in experiment [12] it was 6.43 µM (inactive). The GI50 in [13] is 10 µM (inactive); in [14], 2.29 µM (inactive); in experiment [15], 4.06 µM (inactive); in experiment [16] it was 5.66 µM (inactive); in experiment [17] it was 5.05 µM (inactive); in [18] it was 2.62 µM (inactive). For the same compound, the GI50 in experiment [19] is 3.13 µM (inactive); in experiment [20], 1.88 µM (inactive).

`O=C(NCCNCCCNC(=O)c1cc(-c2ccccc2)nc2ccccc12)c1cccc(OCc2ccccc2)c1OCc1ccccc1`: the GI50 in experiment [1] is 1.71 µM (inactive); in experiment [2], 1.73 µM (inactive); in [3], 1.61 µM (inactive); in experiment [4] it was 1.69 µM (inactive); in experiment [5], 1.81 µM (inactive); in experiment [6] it was 1.69 µM (inactive). For the same compound, the GI50 in experiment [7] was 1.74 µM; in experiment [8], 1.65 µM (inactive); in [9] it was 1.83 µM (inactive); in [10], 1.83 µM (inactive); in [11] it was 1.95 µM (inactive); in [12], 1.64 µM (inactive). In addition, the GI50 in experiment [13] was 1.71 µM (inactive); in experiment [14], 2.48 µM (inactive); in experiment [15], 2.13 µM (inactive); in experiment [16], 1.64 µM (inactive); in experiment [17], 1.77 µM (inactive); in [18], 1.87 µM (inactive). Besides, the results for the GI50 in experiment [19] and in experiment [20] were 1.94 µM (inactive) and 1.93 µM (inactive), respectively.

Take `Nc1c2ccccc2nc2ccc(C(=O)Nc3ccc(S(N)(=O)=O)cc3)cc12`: the GI50 in experiment [1], in [2], in [3], in experiment [4], in experiment [5] and in experiment [6] was > 100 µM (inactive) in each case. The GI50 in experiment [7] was over 100 µM; in experiment [8], > 100 µM (inactive); in experiment [9], > 100 µM (inactive); in experiment [10], > 100 µM (inactive); in experiment [11], > 100 µM (inactive); in [12], > 100 µM (inactive). Also, the GI50 in experiment [13], in experiment [14], in experiment [15], in [16], in experiment [17] and in experiment [18] was > 100 µM (inactive) each time. The GI50 in experiment [19] and in experiment [20] was > 100 µM (inactive) in each case.

For the compound `Cc1c2c(n(CCc3ccccc3)c1C)N(C)N=C(C#N)S2(=O)=O`, the GI50 was > 100 µM (inactive) in experiment [1]; > 100 µM (inactive) in experiment [2]; > 100 µM (inactive) in experiment [3]; > 100 µM (inactive) in experiment [5]; > 100 µM (inactive) in experiment [6]; over 100 µM in experiment [7]. Besides, the GI50 in experiment [8], in experiment [9], in [10], in [11], in [12] and in experiment [13] was > 100 µM (inactive) each time. Also, the GI50 in experiment [14] is > 100 µM (inactive); in experiment [15] it was > 100 µM (inactive); in experiment [16] it was > 100 µM (inactive); in experiment [17], 7.69 µM (inactive); in [18], > 100 µM (inactive); in [19] it was > 100 µM (inactive). Besides, the GI50 in [20] is > 100 µM (inactive).

For the compound `CC(=O)NC(C)(C)C1CC=C(C)CC1` (configuration not stated), the GI50 in experiment [1], in experiment [2], in experiment [3], in [4], in experiment [5] and in experiment [6] was > 100 µM (inactive) each time. Besides, the GI50 in experiment [7] was over 100 µM; in experiment [8], > 100 µM (inactive); in experiment [9] it was > 100 µM (inactive); in [10], > 100 µM (inactive); in [11], > 100 µM (inactive); in experiment [12], > 100 µM (inactive). Besides, the GI50 in experiment [13], in experiment [14], in experiment [15], in [16], in experiment [17] and in experiment [18] was > 100 µM (inactive) in each case. In addition, the GI50 in experiment [19] and in [20] was > 100 µM (inactive) each time.

Turning to `Cc1ccc2c(c1)/C(=N/Nc1ccccc1[N+](=O)[O-])C(=O)N2`, the GI50 was 2.11 µM (inactive) in [1]; 3.32 µM (inactive) in experiment [3]; 14.6 µM (inactive) in experiment [4]; 25 µM (inactive) in experiment [5]; 2.65 µM (inactive) in [6]; over 100 µM in experiment [7]. In addition, the GI50 in experiment [8] is 2.82 µM (inactive); in [9], 4.19 µM (inactive); in experiment [10], 7.76 µM (inactive); in [11] it was 4.85 µM (inactive); in [12], 2.37 µM (inactive); in experiment [13], 3.45 µM (inactive). For the same compound, the GI50 in [14] was 6.73 µM (inactive); in experiment [15], 6.52 µM (inactive); in experiment [16], 14.5 µM (inactive); in experiment [17] it was 2.11 µM (inactive); in [18], 5.33 µM (inactive); in experiment [19], 4.07 µM (inactive). Also, the GI50 in [20] is 35.5 µM (inactive).

With `CC1CCC2(CC1)NC1=C(CC(C)CC1)C1=C2CC(C)CC1` (configuration not stated), the GI50 in experiment [1] was 19.5 µM (inactive); in [2], 23.3 µM (inactive); in [3], 22 µM (inactive); in experiment [4], 20.4 µM (inactive); in [5] it was 38.3 µM (inactive); in experiment [6], 39.1 µM (inactive). Also, the GI50 in experiment [7] is 18.1 µM; in experiment [9], 18.1 µM (inactive); in [10], 20.8 µM (inactive); in experiment [11] it was 17.6 µM (inactive); in experiment [12] it was 22.2 µM (inactive); in experiment [13] it was 23 µM (inactive). The GI50 in experiment [14] is 23.3 µM (inactive); in [15], 15.8 µM (inactive); in [16], 18.1 µM (inactive); in experiment [17] it was 22.1 µM (inactive); in experiment [18], 19.1 µM (inactive); in experiment [19] it was 18.4 µM (inactive). In addition, the GI50 in experiment [20] is > 10 µM (inactive).

As for `C[C@H](Nc1nc(N)c(N=O)c(=O)n1C)C(=O)O`, the GI50 in experiment [1], in experiment [2], in [3], in experiment [4], in experiment [5] and in [6] was > 10 µM (inactive) throughout. Moreover, the GI50 in experiment [7] is over 10 µM; in [8] it was > 10 µM (inactive); in [9], > 10 µM (inactive); in experiment [10], > 10 µM (inactive); in experiment [11] it was > 10 µM (inactive); in experiment [12] it was > 10 µM (inactive). The GI50 in experiment [13], in experiment [14], in [15], in experiment [16], in experiment [17] and in experiment [18] was > 10 µM (inactive) each time. Moreover, the GI50 in [19] and in experiment [20] was > 10 µM (inactive) throughout.
